Assay results: BindingDB's records for doi:10.1016/j.bmcl.2009.10.094 (Amgen, 2009)

Experiment: Antagonist activity at human CRTH2 receptor expressed in CEM cell assessed as inhibition of PGD2-induced cell migration after 3 hrs by transwell migration assay

EC50: 11 nM
Structure (SMILES): CC(=O)N(c1ccccc1)[C@@H]1C[C@H](C)N(C(=O)c2ccccc2)c2ccccc21 (racemic) [(+/-)-cis-N-(1-benzoyl-2-methyl-1,2,3,4-tetrahydroquinolin-4-yl)-N-phenylacetamide]
